This is an account of results in ChEMBL document CHEMBL4033686, “Phenylbenzenesulfonates and -sulfonamides as 17β-hydroxysteroid dehydrogenase type 2 inhibitors: Synthesis and SAR-analysis” (Bioorg Med Chem Lett, 2017).

Holding throughout (format): cell-based
The species entered for series [1] is Homo sapiens. The series is described as follows: Selectivity index, ratio of compound effect for inhibition of recombinant human 11beta-HSD1 expressed in HEK293 cells assessed as residual activity to compound effect for inhibition of 17beta-HSD2 expressed in HEK293 cells assessed as residual activity.
Series [2] deals with T1, 17-beta-hydroxysteroid dehydrogenase type 2 (Homo sapiens) (UniProt P37059).
T1 sequence (whole entry): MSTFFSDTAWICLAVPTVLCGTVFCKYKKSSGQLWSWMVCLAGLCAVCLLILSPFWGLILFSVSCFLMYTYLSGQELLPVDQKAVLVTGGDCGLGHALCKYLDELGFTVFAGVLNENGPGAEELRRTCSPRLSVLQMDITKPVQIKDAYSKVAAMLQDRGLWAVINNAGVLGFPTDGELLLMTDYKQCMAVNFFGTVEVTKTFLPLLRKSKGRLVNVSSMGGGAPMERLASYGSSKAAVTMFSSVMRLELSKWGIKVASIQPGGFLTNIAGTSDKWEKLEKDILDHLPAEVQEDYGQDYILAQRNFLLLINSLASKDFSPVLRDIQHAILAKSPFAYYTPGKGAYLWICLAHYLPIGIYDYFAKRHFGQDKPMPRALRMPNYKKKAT
Put plainly: Inhibition of recombinant human 17beta-HSD2 expressed in HEK293 cells assessed as residual activity at 20 uM using estradiol as substrate after 10 mins in presence of radiolabeled tracer substrate by scintillation counting method relative to control.

Series [3] deals with T2, 17-beta-hydroxysteroid dehydrogenase type 1 (Homo sapiens) (UniProt P14061).
T2 sequence (whole entry): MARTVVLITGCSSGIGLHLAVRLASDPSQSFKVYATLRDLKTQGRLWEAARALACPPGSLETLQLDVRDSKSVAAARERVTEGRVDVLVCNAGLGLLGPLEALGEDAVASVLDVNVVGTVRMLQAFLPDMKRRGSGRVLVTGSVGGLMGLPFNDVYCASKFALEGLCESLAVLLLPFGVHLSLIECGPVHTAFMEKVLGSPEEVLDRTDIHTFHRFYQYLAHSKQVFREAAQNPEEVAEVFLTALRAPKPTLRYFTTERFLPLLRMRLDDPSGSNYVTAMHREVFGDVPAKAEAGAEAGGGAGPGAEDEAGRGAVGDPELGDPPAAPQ
Put plainly: Inhibition of recombinant human 17beta-HSD1 expressed in HEK293 cells assessed as residual activity at 20 uM using estrone as substrate after 10 mins in presence of radiolabeled tracer substrate by scintillation counting method relative to control.

The species entered for series [4] is Homo sapiens. The series is described as follows: Selectivity index, ratio of compound effect for inhibition of recombinant human 17beta-HSD1 expressed in HEK293 cells assessed as residual activity to compound effect for inhibition of 17beta-HSD2 expressed in HEK293 cells assessed as residual activity.
Series [5] has as its target T3, 11beta-HSD2 (11-beta-hydroxysteroid dehydrogenase type 2) (Homo sapiens, UniProt P80365).
T3 sequence (P80365 whole entry): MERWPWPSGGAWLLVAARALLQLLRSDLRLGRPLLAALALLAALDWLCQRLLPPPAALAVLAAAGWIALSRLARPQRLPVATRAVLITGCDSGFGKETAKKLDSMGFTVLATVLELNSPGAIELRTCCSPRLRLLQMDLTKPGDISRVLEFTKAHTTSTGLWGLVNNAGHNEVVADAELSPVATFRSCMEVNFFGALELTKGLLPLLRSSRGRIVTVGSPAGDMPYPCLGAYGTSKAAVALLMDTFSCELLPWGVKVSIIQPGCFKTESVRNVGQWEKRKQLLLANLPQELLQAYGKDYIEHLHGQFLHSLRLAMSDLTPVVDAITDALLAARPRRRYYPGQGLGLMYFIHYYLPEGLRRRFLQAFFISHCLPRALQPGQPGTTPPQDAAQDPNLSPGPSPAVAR
Put plainly: Inhibition of recombinant human 11beta-HSD2 expressed in HEK293 cells assessed as residual activity at 20 uM using cortisol as substrate after 10 mins in presence of radiolabeled tracer substrate by scintillation counting method relative to control. Conditions: HEK293 cells expressing recombinant human 11beta-HSD2, probe cortisol, read-out: Activity.

The target in series [6] is T4, 17-beta-hydroxysteroid dehydrogenase type 2 (Homo sapiens, UniProt P37059).
T4 sequence (P37059 whole entry): T1 sequence (whole entry)
The series is described as follows: Inhibition of recombinant human 17beta-HSD2 expressed in HEK293 cells using estradiol as substrate after 10 mins in presence of radiolabeled tracer substrate by scintillation counting method.

For series [7], the target named is 11-beta-hydroxysteroid dehydrogenase 1 (Homo sapiens) (UniProt P28845). Put plainly: Inhibition of recombinant human 11beta-HSD1 expressed in HEK293 cells assessed as residual activity at 20 uM using cortisone as substrate after 10 mins in presence of radiolabeled tracer substrate by scintillation counting method relative to control.
Chain of 11-beta-hydroxysteroid dehydrogenase 1 (Homo sapiens) (P28845 whole entry, looked up): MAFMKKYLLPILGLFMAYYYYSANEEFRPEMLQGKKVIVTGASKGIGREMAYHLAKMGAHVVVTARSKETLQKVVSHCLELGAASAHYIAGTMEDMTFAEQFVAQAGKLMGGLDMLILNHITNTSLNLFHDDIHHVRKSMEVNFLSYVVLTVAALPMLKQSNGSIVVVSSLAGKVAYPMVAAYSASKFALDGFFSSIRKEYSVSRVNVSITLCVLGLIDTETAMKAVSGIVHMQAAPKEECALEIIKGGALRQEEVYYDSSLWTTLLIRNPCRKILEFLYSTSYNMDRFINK
The species named for series [8] is Homo sapiens. Put plainly: Selectivity index, ratio of compound effect for inhibition of recombinant human 11beta-HSD2 expressed in HEK293 cells assessed as residual activity to compound effect for inhibition of 17beta-HSD2 expressed in HEK293 cells assessed as residual activity.

By IC50 is commonly meant the concentration that gives 50% inhibition. Take `CC(C)(C)c1ccc(S(=O)(=O)Nc2cc(Cl)ccc2O)cc1`: the Selectivity Index in series [1] came out at 5.8; in series [4] it was 2.5; in series [8] it was 1.2. Besides, the Activity in series [2] turned out to be 6%; in series [3], 15%; in series [7], 35%. In addition, the activity at 10 min, 20 µM in series [5] was 7%. For the same compound, in series [6], the IC50 stood at 0.8 µM.

Regarding `Cc1cc(C)c(O)c(NS(=O)(=O)c2ccc(C(C)(C)C)cc2)c1`, the results for the Selectivity Index in series [1], in series [4] and in series [8] were 2.4, 1.1 and 2.1, respectively. For the same compound, the Activity came out at 18% in series [2], 19% in series [3] and 43% in series [7]. In addition, the activity at 10 min, 20 µM in series [5] amounted to 37%. In addition, in series [6], the IC50 worked out at 5.19 µM.

Turning to `CC(C)(C)c1ccc(S(=O)(=O)Nc2ccc(F)cc2N)cc1`, the Selectivity Index is 0.7 in series [1], 1.6 in series [4] and 2.7 in series [8]. The results for the Activity in series [2], in series [3] and in series [7] were 36%, 56% and 26%, respectively. Also, in series [5], the activity at 10 min, 20 µM is 97%.

As for `Cc1ccc(NS(=O)(=O)c2ccc(C(C)(C)C)cc2)c(O)c1`, the Selectivity Index amounted to 1.1 in series [1], 1.6 in series [4] and 2.8 in series [8]. Moreover, the Activity in series [2] is 22%; in series [3] it was 35%; in series [7], 24%. Further, the activity at 10 min, 20 µM in series [5] was determined as 62%. Also, the IC50 in series [6] turned out to be 4.4 µM.

On to `CC(C)(C)c1ccc(S(=O)(=O)Oc2ccc(-c3ccccc3)cc2N)cc1`, for which the Activity in series [2] came out at 86%.

As for `Cc1ccc(N)c(OS(=O)(=O)c2ccc(C(C)(C)C)cc2)c1`, the Activity in series [2] was found to be 36%.

`CC(C)(C)c1ccc(S(=O)(=O)Nc2ccc(Cl)cc2N)cc1`: the Activity in series [2] amounted to 35%.

As for `CC(C)(C)c1ccc(S(=O)(=O)Nc2cc(-c3ccccc3)ccc2O)cc1`, the Selectivity Index in series [1] is 31; in series [4] it was 6.5; in series [8] it was 1.5. Moreover, the values for the Activity in series [2], in series [3] and in series [7] were 2%, 13% and 62%, respectively. The activity at 10 min, 20 µM in series [5] turned out to be 3%. Moreover, the IC50 in series [6] is 1.25 µM.

Take `CC(C)(C)c1ccc(S(=O)(=O)Nc2ccccc2O)cc1`: the figures for the Selectivity Index in series [1], in series [4] and in series [8] were 7.4, 8.2 and 16.6, respectively. The Activity in series [2] was 5%; in series [3], 41%; in series [7], 37%. Moreover, the activity at 10 min, 20 µM in series [5] stood at 83%. In series [6], the IC50 was 1.23 µM.

With `CC(C)(C)c1ccc(S(=O)(=O)Nc2cc(Cl)c(Cl)cc2N)cc1`, the Selectivity Index in series [1] is 6.7; in series [4] it was 2.1; in series [8], 1.9. Besides, the figures for the Activity in series [2], in series [3] and in series [7] were 11%, 23% and 74%, respectively. Further, the activity at 10 min, 20 µM in series [5] amounted to 21%. The IC50 in series [6] came out at 4.65 µM.

`CC(C)(C)c1ccc(S(=O)(=O)Nc2c(O)ccc3ccccc23)cc1`: the Selectivity Index in series [1] amounted to 3; in series [4], 8.6; in series [8] it was 3. Also, the values for the Activity in series [2], in series [3] and in series [7] were 7%, 46% and 21%, respectively. Further, the activity at 10 min, 20 µM in series [5] was 21%. Further, the IC50 in series [6] came to 2.9 µM.

As for `O=c1cc(-c2ccc(O)cc2)oc2cc(O)cc(O)c12`, the Activity in series [3] was found to be 11%.

Turning to `Cc1ccc(O)c(NS(=O)(=O)c2ccc(C(C)(C)C)cc2)c1`, the Selectivity Index in series [1] stood at 3.5; in series [4], 2.9; in series [8], 4.8. In addition, the Activity in series [2] was 13%; in series [3], 38%; in series [7] it was 46%. Moreover, the activity at 10 min, 20 µM in series [5] amounted to 63%. Moreover, the IC50 in series [6] was 4.09 µM.

Regarding `CC(C)(C)c1ccc(S(=O)(=O)Oc2ccc3ccccc3c2N)cc1`, in series [2], the Activity came to 43%.

Consider `Cc1cc(N)c(NS(=O)(=O)c2ccc(C(C)(C)C)cc2)cc1C`, for which the Activity in series [2] was determined as 58%.

Regarding `Cc1cc(S(=O)(=O)Nc2cccc(O)c2)c(C)cc1Cl`, in series [2], the Activity was 10%.

For `CC(C)(C)c1ccc(S(=O)(=O)Nc2ccccc2N)cc1`, the Activity in series [2] came out at 46%.

As to `CC(C)(C)c1ccc(S(=O)(=O)Oc2ccc(Cl)cc2N)cc1`, the Activity in series [2] was 44%.

For the compound `Cc1ccc(OS(=O)(=O)c2ccc(C(C)(C)C)cc2)c(N)c1`, the Activity in series [2] is 37%.

On to `CC(C)(C)c1ccc(S(=O)(=O)Nc2cc(Cl)ccc2N)cc1`, for which the Selectivity Index came out at 1.3 in series [1], 2.1 in series [4] and 3.4 in series [8]. The Activity in series [2] was 22 to 28%; in series [3], 46%; in series [7] it was 28%. The activity at 10 min, 20 µM in series [5] was 75%. The 50% inhibitory concentration (IC50) in series [6] was 5.58 µM.

In the case of `Cc1cc(C)c(OS(=O)(=O)c2ccc(C(C)(C)C)cc2)c(N)c1`, the Activity in series [2] turned out to be 49%.

`CC(C)(C)c1ccc(S(=O)(=O)Oc2ccccc2N)cc1`: in series [2], the Activity was found to be 33%.
